Like-named read-outs stand apart in the source and are kept apart here. Bridge positions count the residues as written; N and C are the ends. Peptide text beside a SMILES is read from it.

The values that follow come from article PMC7317715, “Discovery of a novel fluorescent chemical probe suitable for evaluation of neuropilin‐1 binding of small molecules” (Drug Development Research, 2020).

In one experiment the target is T1, NRP1‐b1 domain (Homo sapiens, UniProt O14786).
T1 construct: Ligands were evaluated against the NRP1‐b1 domain
T1 sequence (O14786 275-424 limits assumed): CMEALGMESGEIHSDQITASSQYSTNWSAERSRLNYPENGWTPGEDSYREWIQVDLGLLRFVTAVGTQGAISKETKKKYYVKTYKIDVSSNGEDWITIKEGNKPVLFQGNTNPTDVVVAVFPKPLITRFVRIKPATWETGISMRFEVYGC
Kind of experiment: SPR binding of fluorescent probes to immobilised NRP1-b1. To be noted: for Kd: NRP1‐b1 on CM5 chip, 3% DMSO in PBS‐P, 1:1 binding model, read-out: KD (μM, affinity); for Observed Rmax (% of theoretical): experimentally observed Rmax as percentage of theoretical Rmax (quality control). As for the experimental part: All SPR analysis was performed on a BIAcore T200 system using series S CM5 sensor chips. The […] SPR is effectively a stop‐flow instrument, and dissociation from the immobilized protein is initiated by the absence of analyte (ligand) when buffer alone is perfused, this setup allows the determination of on and off rates and equilibrium binding constants. Relatively high DMSO concentrations are normal for SPR experiments to limit solubility problems and minimize nonspecific aggregation. Extensive DMSO controls are included and automatically subtracted from the sensorgrams. Sensorgrams were double referenced by subtracting the response on a reference flow cell and a blank sample. Ligands were evaluated against the NRP1‐b1 domain. NRP1‐b1 was covalently attached to a CM5 chip via amine coupling (Powell et al., 2018) with a surface density of 2,000–3,000 RU. Binding of novel fluorescent probes (0.4–100 μM) were analyzed by multicycle sequential injections (30–120 s association time) followed by undisturbed dissociation (30–60 s). A regeneration step was not used. Peptide stocks were dissolved in dimethyl sulfoxide (DMSO), and the final sample solutions for kinetic affinity experiments contained 3% DMSO in 1× phosphate‐buffered saline P20 buffer (PBS‐P, Cat no 28995084, GE Healthcare Ltd.). DMSO solvent effects were corrected for with eight calibration solutions ([…] in PBS‐P). Equilibrium constants (KD) were calculated using either kinetic or affinity models, assuming simple 1:1 (Langmuir) binding. Data processing and analysis were performed using BIAevaluation and OriginPro software. The theoretical Rmax (the maximal feasible signal between a ligand—analyte pair) for each compound/protein pair was calculated using Scheme 1 (Marquart, 2017).
The experimentally observed Rmax was then calculated as a percentage of the theoretical Rmax as a quality control measure.

Experiment [1] has as its target T2, NRP1 b1 (Homo sapiens, UniProt O14786).
T2 construct: Ligands were evaluated against the NRP1‐b1 domain
T2 sequence (O14786 275-424 limits assumed): T1 sequence (O14786 275-424 limits assumed)
Kind of experiment: FP saturation binding / protein titration (dynamic range). The following applies: for Kd: KD derived from the 50% signal maximum; for Dynamic window (mP): FP, probe + NRP1‐b1 vs probe only, probe and NRP‐b1 conc per probe as in Table 2. As for the experimental part:
Initial experiments were performed using PBS‐P buffer with 3% DMSO in a final volume of 80 μl. The reaction plates or tubes were kept on ice during pipetting.
Saturation binding: dynamic range and protein titration experiments were performed at probe concentrations selected with guidance from in‐house SPR analysis, literature KD of the untagged compound, and an FP technical resource guide (Invitrogen, 2006). The NRP‐b1 concentrations ranged from 10 nM to 30 μM.

Experiment [2] has as its target T2, NRP1 b1. As to the kind of experiment: FP competition experiment with DS108 probe. In kind it is binding. To be noted: for IC50: FP competition, DS108 0.75 μM, NRP1 b1 7.5 μM, PBS‐P buffer; for Ki: calculated from FP competition IC50 using kinetic equations (Nikolovska‐Coleska et al., 2004). As for the experimental part: Competition experiments: FP samples were prepared in the following order—ligand in PBS‐P buffer (20 μl), NRP1‐b1 protein ([…], 20 μl) in PBS‐P buffer, and DS108 probe (1,500 nM, 40 μl) in PBS‐P buffer. FP was measured and normalized to experiment controls (buffer + probe, buffer + probe + protein) using a BMG Labtech PHERAstar® plate reader (filter settings: 485 nm [excitation] and 520 nm [emission]). Background FP was blanked using a PBS‐P buffer only control.
Data processing: raw data were processed using OriginPro curve fitting software to obtain the IC50s and error values shown. A dose–response curve fitting model was utilized for the competition experiments. A web based IC50‐to‐Ki converter that computes Ki values from experimentally determined IC50 values was employed (Cer, Mudunuri, Stephens, & Lebeda, 2009) (https://bioinfo-abcc.ncifcrf.gov/IC50_Ki_Converter/index.php) Each experiment was conducted in triplicate and repeated two times. The statistical reproducibility of this assay was evaluated using the z factor equation (Scheme 2).

Experiment [3] deals with NRP1. To be noted: NRP1 inhibition using bt‐VEGF165 binding; ref Jia et al., 2006; read-out: Literature IC50; cited from earlier work.
The subject of experiment [4] is NRP1. Also noted: method as in Powell et al., 2018. The following applies: ref Powell et al., 2018; cited from earlier work.
Experiment [5] deals with 5-Flu-RPARPAR.
The target of experiment [6] is 5-Flu-RPARPAR. As to the kind of experiment: SPR. (SPR reads the build-up and loss of mass on a sensor chip optically.)

Usually Kd stands for the free concentration of one partner at which half of the binding sites on the other are occupied at equilibrium, for simple one-to-one binding. Regarding `N=C(N)NCCC[C@H](NC(=O)c1sccc1NS(=O)(=O)c1cc(-c2ccc(CNC(=O)CCOCCOCCOCCNC(=O)c3ccc(-c4c5ccc(=O)cc-5oc5cc(O)ccc45)c(C(=O)O)c3)cc2)cc2c1OCC2)C(=O)O` [probe 3, (S)‐5‐((1‐(4‐(7‐(N‐(2‐((1‐carboxy‐4‐guanidinobutyl)carbamoyl)thiophen‐3‐yl)sulfamoyl)‐2,3‐dihydrobenzofuran‐5‐yl)phenyl)‐3‐oxo‐6,9,12‐trioxa‐2‐azatetradecan‐14‐yl)carbamoyl)‐2‐(6‐hydroxy‐3‐oxo‐3H‐xanthen‐9‐yl)benzoic acid], the Kd on NRP1‐b1 domain was determined as 24.6 ± 6.3 µM; on NRP1 b1 [1] (FP protein titration), 4.61 ± 0.19 µM. Also, the “Observed Rmax (% of theoretical)” value on NRP1‐b1 domain is reported as 77%. On NRP1 b1 [1], the “Dynamic window (mP)” value was determined as 30.7 mP.
For orientation: IC50 means the concentration at which inhibition is half-maximal. In general, Ki refers to a dissociation constant, usually derived from enzyme kinetics or from competition with a known ligand. As for `CC(C)C[C@@H]1NC(=O)[C@H](CCC(N)=O)NC(=O)[C@H](CCCNC(=N)N)NC(=O)[C@H](C)NC(=O)[C@H](CCCCN)NC(=O)[C@@H]2CSSC[C@@H](C(=O)N[C@@H](CC(=O)O)C(=O)N[C@@H](CCCCN)C(=O)N3CCC[C@H]3C(=O)N[C@@H](CCCNC(=N)N)C(=O)N[C@@H](CCCNC(=N)N)C(=O)O)NC(=O)[C@H](CCCNC(=N)N)NC(=O)[C@H](CSSC[C@H](NC(=O)[C@@H](N)CO)C(=O)N[C@@H](CCCCN)C(=O)N[C@@H](CC(N)=O)C(=O)N[C@@H]([C@@H](C)O)C(=O)N[C@@H](CC(=O)O)C(=O)N[C@@H](CO)C(=O)N[C@@H](CCCNC(=N)N)C(=O)N2)NC(=O)[C@H]([C@@H](C)O)NC(=O)[C@H](CCCNC(=N)N)NC(=O)[C@H](CCC(=O)O)NC(=O)[C@H](CC(N)=O)NC(=O)[C@H](CC(C)C)NC(=O)[C@H](CCC(=O)O)NC1=O` [EG03287] (H-SCKNTDSRCKARQLELNERTCRCDKPRR-OH; disulfide 2-21, 9-23; N-terminus and C-terminus assumed), at NRP1 b1 [2], the IC50 is 5.77 ± 0.87 µM and the Ki was 2.47 µM. Moreover, in the experiment with NRP1 [3], the IC50 was 1.2 µM.
With RPARPAR [reference compound], the Kd was determined as 69 ± 22 µM on NRP1‐b1 domain and 1.88 ± 1.4 µM at NRP1 b1 [1] ([…]). The “Observed Rmax (% of theoretical)” value on NRP1‐b1 domain came to 60.61%. Besides, the “Dynamic window (mP)” value at NRP1 b1 [1] is reported as 22.6 mP.
Regarding `N=C(N)NCCC[C@H](NC(=O)c1sccc1NS(=O)(=O)c1cc(-c2ccc(CN)cc2)cc2c1OCC2)C(=O)O` [EG01377], at NRP1 b1 [2], the IC50 is 16.8 ± 1.25 µM and the Ki was 7.39 µM. Moreover, in the experiment on NRP1 [4], the NRP1 antagonistic properties result is “submicromolar” and the “selectivity for NRP1 over NRP2 receptor” value is “selective for NRP1”.
With `N=C(N)NCCC[C@H](NC(=O)c1sccc1NS(=O)(=O)c1cc(-c2ccc(CNC(=O)CCOCCOCCOCCOCCOCc3cn(CCCNC(=O)c4ccc5c(c4)C(=O)OC54c5ccc(O)cc5Oc5cc(O)ccc54)nn3)cc2)cc2c1OCC2)C(=O)O` [probe 4, (3‐((5‐(4‐(1‐(1‐(3‐(3′,6′‐dihydroxy‐3‐oxo‐3H‐spiro(isobenzofuran‐1,9′‐xanthene)‐5‐carboxamido)propyl)‐1H‐1,2,3‐triazol‐4‐yl)‐17‐oxo‐2,5,8,11,14‐pentaoxa‐18‐azanonadecan‐19‐yl)phenyl)‐2,3‐dihydrobenzofuran)‐7‐sulfonamido)thiophene‐2‐carbonyl)‐L‐arginine], on NRP1‐b1 domain, the Kd stood at 3.3 ± 0.2 µM and the “Observed Rmax (% of theoretical)” value came to 43%. Also, on NRP1 b1 [1] (FP protein titration), the Kd turned out to be 0.62 ± 0.098 µM. Further, on NRP1 b1 [1], the “Dynamic window (mP)” value is listed as 5.2 mP.

B1: NRP1 b1 b1 domain (protein)
chain: FKCMEALGMESGEIHSDQITASSQYSTNWSAERSRLNYPENGWTPGEDSYREWIQVDLGLLRFVTAVGTQGAISKETKKKYYVKTYKIDVSSNGEDWITIKEGNKPVLFQGNTNPTDVVVAVFPKPLITRFVRIKPATWETGISMRFEVYGCKIT
For the molecule B1, the values for the Kd with 5-Flu-RPARPAR [5] and in the experiment with 5-Flu-RPARPAR [6] were 1.88 µM and 69 µM, respectively.
